Earlier results in US8283154B2, “Method of decontaminating polluted environments with bacteria on a porous support” (National Institute for Agro-Environmental Sciences …, priority 2005, dated 2012).

In the case of `Clc1c(Cl)c(Cl)c(Cl)c(Cl)c1Cl` [HCB, hexachlorobenzene], the aqueous solubility is listed as 0.005 ppm.
